Like-named read-outs stand apart in the source and are kept apart here.
Assays:
rodent model of diabetes = system: rodent model of diabetes; set-up: method as in PMID 20000679; conditions: ref 36; cited from earlier work
GBA2 = conditions: ref 15; cited from earlier work
C57BL6J mice [1] = assay: Testis histology (H&E) after 35 days oral dosing; type: in vivo, mouse; conditions: 15, 25 or 50 mg/kg, oral daily
Protocol: (§1) Groups of six mice, each, were used for three different doses of NB-DNJ or NB-DGJ formulated in milliQ water at 50 mg/kg, 25 mg/kg and 15 mg/kg, respectively. Control groups were given an equivalent volume of water. Animals were given compound or control once daily for 35 consecutive days via oral gavage using animal feeding needles (Biomedical Needles, Popper, NY, USA). Body weight was noted every week for all treatment groups. Mice were euthanized at the end of a 35 days dosing regimen using CO2 asphyxia followed by cervical dislocation. Testes were harvested, weighed and stored in Bouin’s fixative for 48 h, then sliced into two halves, and stored in fresh Bouin’s for another 24 h. The tissue slices were then rinsed in 70% ethanol and processed and stained for histology using a standard protocol for Hematoxylin and eosin staining. Spermatids with elongated and abnormally shaped heads were counted per 20 fields and average number calculated for 6 mice/group.

human subjects = system: human subjects; set-up: method as in PMID 17067996, PMID 10801168, PMID 7905523; conditions: ref 25, 26, 27; cited from earlier work
C57BL6J mice [2] = assay: Epididymal sperm acrosome morphology (FITC-PSA staining) after 35 days oral dosing; type: in vivo, mouse; conditions: 15, 25 and 50 mg/kg oral daily
Protocol: as §1
For sperm retrieval, epididymis was removed from the animal and placed in Petri dish. One mL of capacitation buffer (Capacitation buffer consisted of 110 mM NaCl, 2.68 mM KCl, 0.36 mM NaH2PO4, 25 mM NaHCO3, 0.49 mM MgCl2, 2.40 mM CaCl2, 25 mM HEPES, 5.50 mM Glucose, 1 mM Pyruvic acid, pH 7.4; Tash and Bracho, 1998) at room temperature was added to the dish. Using forceps, the caput of the epididymis was held in place and the cauda sliced repeatedly with a razor blade. The spermatozoa were allowed to disperse for 15 min with gentle swirling intermittently. A 100 µL aliquot of the sperm suspension was dropped onto a standard glass microscope slide (Fisherbrand superfrost microscope slides 25 × 75 × 1.0 mm)) and smeared with side of pipette tip. The slides were air dried flat for 1 h at room temperature. The sperm smear was fixed in methanol for 2 min. The sperm smear was than stained using FITC-PSA (Fluorescein isothiocyanate Pisum Sativum Agglutinin; Vector Laboratories, Burlingame, CA) was diluted 1:7000 in PBS containing 1:10,000 DAPI dihydrochloride, FluoroPure™ grade, Invitrogen) (≥98% pure) to make the stock solution. To each slide, 100 µL of FITC-PSA was added and spread out with edge of pipette tip to cover the dried sperm smear. The slides were incubated at 37 °C for 10 min, and then washed with 5 changes of PBS for 5 min each. The slides were air-dried and mounted with 20 µL Vectashield mounting medium for fluorescence (Vector Laboratories, Burlingame, CA, USA) and observed. Slides were viewed on a Nikon IX-81 microscope under a 40× objective using FITC and DAPI filter to visualize acrosome morphology. The phase contrast images were also collected at the same magnification to compare morphological details.

[3] = set-up: method as in PMID 17624027; conditions: male and female CD rats, oral [3H]-NB-DNJ 160 mg/kg, cited from earlier work
male CD rats = assay: Rat mating trial (fertility); type: in vivo; conditions: 15 mg/kg/day oral, 35 days; data not presented
Protocol: Eighteen adult male CD rats were divided into three groups of six rats each. One group of six CD rats was treated with vehicle (distilled water containing 0.9% benzyl alcohol) via oral gavage (5 mL/kg/day), and the second group (6 rats) was treated with NB-DGJ (in distilled water containing 0.9% benzyl alcohol) via oral gavage at 150 mg/kg/day (in approximately 5 mL/kg of water) daily for 35 consecutive days. The third group (6 rats) was treated with 15 mg/kg NB-DNJ in distilled water containing 0.9% benzyl alcohol) via oral gavage (in approximately 5 mL/kg of water) daily for 35 consecutive days (Figure S5).
Rats were weighed on day 0 (first day of dosing) and weekly thereafter. Dosages were adjusted based on the most recent body weight. Males were cohabited with untreated females (one male per two females) weekly at weeks 1 through 9 [38, 39]. Females were necropsied seven days after separation from males to determine the numbers of implantation sites. Individual male rats were bled from the tail vein at weeks 0, 1, 4, and 7 and serum was harvested by centrifugation. At week 11, the male rats were weighed, anesthetized, and exsanguinated. Sera were analyzed for inhibin B by ELISA (enzyme-linked immunosorbent assay), and rat follicle stimulating hormone (rFSH) and testosterone by radioimmunoassay. Testes, epididymides, ventral prostates, and seminal vesicles were excised and weighed. The left testis was homogenized, and spermatid head counts obtained.
Statistical analysis using the Student’s t-test was performed on body weights, paired testes weights, ventral prostrate weights, seminal vesicle weights, paired epididymal weights, spermatid head counts, percent motile and normal epididymal sperm. We used analysis of variance (ANOVA) for serum inhibin B, rFSH, and testosterone, since these measurements were repeated throughout the study period. The effect of NB-DNJ at 15 mg/kg/day dose in the rat model was studied following the same protocol as that for NB-DGJ.

C57BL/6 mice = conditions: cited from earlier work
[4] = C57BL/6 mice, daily oral 15 mg/kg

OC[C@@H]1[C@@H](O)[C@H](O)[C@@H](O)CN1CCCCCOCC12CC3CC(CC(C3)C1)C2
Control of hyperglycemia (in words) (rodent model of diabetes): potently control hyperglycemia

CCCCN1C[C@H](O)[C@@H](O)[C@H](O)[C@H]1CO [NB-DNJ, N-butyldeoxynojirimycin]
Testis histology, spermatid heads (in words) (C57BL6J mice [1]): rounded, abnormally shaped spermatid heads
Effect in human subjects (sperm counts, semen parameters) (human subjects): no effect
Sperm acrosome morphology (in words) (C57BL6J mice [2]): abnormal acrosome in all spermatozoa
Cmax [3]: 13,800 ng/mL
tmax [3]: 0.5 h
t½ [3]: 4.5 h
Cmax ([3]; read-out: Cmax in molar units): ~63 µM
Effect on fertility in mating trial (in words) (male CD rats): did not show effect on fertility by week 6
Time to return of fertility after cessation (C57BL/6 mice; C57BL/6 mice, 15 mg/kg): three weeks
Effect on fertility (in words) (C57BL/6 mice; [4]): Reversible inhibition of fertility
Time of daily dosing until inhibition of fertility was observed (C57BL/6 mice; [4]): three weeks
Strain/species specificity of male contraceptive activity (in words) (C57BL/6 mice; ref 24): only effective as a male contraceptive in C57BL/6 and C57BL/6-related mice

From publication PMC6982022 (International Journal of Molecular Sciences, 2019)
